US6670363B1, “Azole compounds as therapeutic agents for fungal infections” (Ranbaxy Laboratories Limited, priority 2000, dated 2003)
≈ marks a conversion by molar mass, not a printed value.

Tested on: A. fumigatus s 1008
Assay: In vitro MIC, NCCLS M38P broth method (RPMI 1640/MOPS pH7), Aspergillus fumigatus
Assay type: cell-based
Details: A. fumigatus s 1008

Compound	MIC (υg/ml) (A. fumigatus s 1008)
3-{4-[4-(4-chlorophenyl-N-ethylureido)-piperazinyl]-phenoxy}-2-(2,4-difluorophenyl)-1-(1H-1,2,4-triazolyl)-2-ethoxy-3-propylamine [Compound 74]	>12.5 µg/mL
3-{4-[4-(4-chlorophenyl-N-ethylureido)-piperazinyl]-phenoxy}-2-(2,4-difluorophenyl)-1-(1H-1,2,4-triazolyl)-propan-3-amino-2-ol [Compound 73]	>12.5 µg/mL
Cc1ccc(NC(=S)NN2CCN(c3ccc(OCC(O)(Cn4cncn4)c4ccc(F)cc4F)cc3)CC2)cc1 (centres unmarked) [Compound 64, 3-{4-[4-(p-Tolylthioureido)piperazinyl]phenoxy}-2-(2,4-difluorophenyl)-1-(1H-1,2,4-trizol-1-yl)-propan-2-ol]	3.12 µg/mL (≈ 5.38 µM)
CC(C)NC(=S)NN1CCN(c2ccc(OCC(O)(Cn3cncn3)c3ccc(F)cc3F)cc2)CC1 (centres unmarked) [Compound 65, 3-{4-[4-(Isopropylaminothiocarbonylamino)piperazinyl]phenoxy}-2-(2,4-difluorophenyl)-1-(1H-1,2,4-triazol-1-yl)-propan-2-ol]	>12.5 µg/mL
OC(COc1ccc(N2CCN(NC(=S)Nc3ccc(Cl)cc3)CC2)cc1)(Cn1cncn1)c1ccc(F)cc1F (centres unmarked) [Compound 66, 3-{4-[4-(4-Chlorophenylthioureido)piperazinyl]phenoxy}-2-(2,4-difluorophenyl)-1-(1H-1,2,4-triazol-1-yl)-propan-2-ol]	>12.5 µg/mL
O=C(Nc1ccc(Cl)cc1)NN1CCN(c2ccc(OCC(O)(Cn3cncn3)c3ccc(F)cc3F)cc2)CC1 (centres unmarked) [Compound 67, 3-{4-[4-(4-Chlorophenylureido)piperazinyl]phenoxy}-2-(2,4-difluorophenyl)-1-(1H-1,2,4-triazol-1-yl)-propan-2-ol]	6.25 µg/mL (≈ 10.7 µM)
OC(COc1ccc(N2CCN(NC(=S)Nc3cccc4ccccc34)CC2)cc1)(Cn1cncn1)c1ccc(F)cc1F (centres unmarked) [Compound 68, 3-{4-[4-(1-Napthylthioureido)piperazinyl]phenoxy}-2-(2,4-difluorophenyl)-1-(1H-1,2,4-triazol-1-yl)-propan-2-ol]	>12.5 µg/mL
O=C(Nc1cccc2ccccc12)NN1CCN(c2ccc(OCC(O)(Cn3cncn3)c3ccc(F)cc3F)cc2)CC1 (centres unmarked) [Compound 69, 3-{4-[4-(1-Napthylureido)piperazinyl]phenoxy}-2-(2,4-difluorophenyl)-1-(1H-1,2,4-triazol-1-yl)-propan-2-ol]	>12.5 µg/mL
OC(COc1ccc(N2CCN(NC(=S)Nc3ccc(C(F)(F)F)cc3)CC2)cc1)(Cn1cncn1)c1ccc(F)cc1F (centres unmarked) [Compound 70, 3-{4-[4-(4-Trifluoromethylphenylthioureido)piperazinyl]phenoxy}-2-(2,4-difluorophenyl)-1-(1H-1,2,4-triazol-1-yl)-propan-2-ol]	>12.5 µg/mL
COc1ccc(NC(=O)NN2CCN(c3ccc(OCC(O)(Cn4cncn4)c4ccc(F)cc4F)cc3)CC2)cc1 (centres unmarked) [Compound 71, 3-{4-[4-(4-Methoxyphenylureido)piperazinyl]phenoxy}-2-(2,4-difluorophenyl)-1-(1H-1,2,4-triazol-1-yl)-propan-2-ol]	>12.5 µg/mL
O=C(Nc1ccc(Cl)cc1Cl)NN1CCN(c2ccc(OCC(O)(Cn3cncn3)c3ccc(F)cc3F)cc2)CC1 (centres unmarked) [Compound 72, 3-{4-[4-(2,4-Dichlorophenylureido)piperazinyl]phenoxy}-2-(2,4-difluorophenyl)-1-(1H-1,2,4-triazol-1-yl)-propan-2-ol]	>12.5 µg/mL
COC(COc1ccc(N2CCN(NC(=O)N(C)c3ccc(Cl)cc3)CC2)cc1)(Cn1cncn1)c1ccc(F)cc1F (centres unmarked) [Compound 75, 3-{4-[4-N-(4-Chlorophenyl)-N-(methylureido)-piperazinyl]-phenoxy}-2-(2,4-difluorophenyl)-1-(1H-1,2,4-triazolyl)-2-methoxypropane]	>12.5 µg/mL
Nc1ccc(NC(=O)NN2CCN(c3ccc(OCC(O)(Cn4cncn4)c4ccc(F)cc4F)cc3)CC2)cc1 (centres unmarked) [Compound 76, 3-{4-[4-(4-Aminophenylureido)piperazinyl]phenoxy}-2-(2,4-difluorophenyl)-1-(1H-1,2,4-triazol-1-yl)-propan-2-ol]	>12.5 µg/mL
C[C@@H](Oc1ccc(N2CCN(NC(=O)Nc3ccc(Cl)cc3)CC2)cc1)[C@](O)(Cn1cncn1)c1ccc(F)cc1F [Compound 77, [1R2R/1S2S] 1-{4-[4-(4-Chlorophenylureido)-piperazinyl]-phenoxy}-2-(2,4-difluorophenyl)-1-methyl-3-(1H-1,2,4-triazolyl)-propan-2-ol]	2 µg/mL (≈ 3.34 µM)
CC(Oc1ccc(N2CCN(NC(=O)Nc3ccc(Cl)cc3)CC2)cc1)C(O)(Cn1cncn1)c1ccc(F)cc1F (centres unmarked) [Compound 78, [1R2S/1S2R] 1-{4-[4-(4-Chlorophenylureido)-piperazinyl]-phenoxy}2-(2,4-difluorophenyl)-1-methyl-3-(1H-1,2,4-triazolyl)-propan-2-ol]	0.5 µg/mL (≈ 0.836 µM)
CC(Oc1ccc(N2CCN(NC(=O)Nc3ccc(C(F)(F)F)cc3)CC2)cc1)C(O)(Cn1cncn1)c1ccc(F)cc1F (centres unmarked) [Compound 79, 1-{4-[4-(4-Trifluoromethylphenylureido)piperazinyl]phenoxy}-2-(2,4-difluorophenyl)-1-methyl-3-(1H-1,2,4-triazol-1-yl)-propan-2-ol]	8 µg/mL (≈ 12.7 µM)
O=C(Nc1ccccc1)NN1CCN(c2ccc(OCC(O)(Cn3cncn3)c3ccc(F)cc3F)cc2)CC1 (centres unmarked) [Compound 80, 3-{4-[4-(Phenylureido)-piperazinyl]phenoxy}-2-(2,4-difluorophenyl)-1-(1H-1,2,4-triazol-1-yl)-propan-2-ol]	>12.5 µg/mL
CN(CC(O)(Cn1cncn1)c1ccc(F)cc1F)c1ccc(NC(=S)Nc2ccccc2)cc1 (centres unmarked) [Compound 81, 3-{N-[4-(Phenylthioureido)-phenyl]-N-methyl}-2-(2,4-Difluorophenyl)-1-(1H-1,2,4-triazolyl)-propan-3-amino-2-ol]	>12.5 µg/mL
CC(C)NC(=S)Nc1ccc(N(C)CC(O)(Cn2cncn2)c2ccc(F)cc2F)cc1 (centres unmarked) [Compound 82, 3-{N-[4-(Isopropylthioureido)-phenyl]-N-methyl}-2-(2,4-difluorophenyl)-1-(1H-1,2,4-triazolyl)-propan-3-amino-2-ol]	>12.5 µg/mL
Cc1ccc(NC(=S)Nc2ccc(N(C)CC(O)(Cn3cncn3)c3ccc(F)cc3F)cc2)cc1 (centres unmarked) [Compound 83, 3-{N-[4-(p-Tolylthioureido)-phenyl]-N-methyl}-2-(2,4-difluorophenyl)-1-(1H-1,2,4-triazolyl)-propan-3-amino-2-ol]	>12.5 µg/mL
CN(CC(O)(Cn1cncn1)c1ccc(F)cc1F)c1ccc(NC(=O)Nc2ccc(F)cc2)cc1 (centres unmarked) [Compound 84, 3-{N-[4-(p-Fluorophenylureido)-phenyl]-N-methyl}-2-(2,4-difluorophenyl)-1-(1H-1,2,4-triazolyl)-propan-3-amino-2-ol]	>12.5 µg/mL
CN(CC(O)(Cn1cncn1)c1ccc(F)cc1F)c1ccc(NC(=O)Nc2ccc([N+](=O)[O-])cc2)cc1 (centres unmarked) [Compound 85, 3-{N-[4-(p-nitrophenylureido)-phenyl]-N-methyl}-2-(2,4-Difluorophenyl)-1-(1H-1,2,4-triazolyl)-propan-3-amino-2-ol]	>12.5 µg/mL
CN(CC(O)(Cn1cncn1)c1ccc(F)cc1F)c1ccc(NC(=O)Nc2ccc(Cl)cc2)cc1 (centres unmarked) [Compound 86, 3-{N-[4-(p-Chlorophenylureido)-phenyl]-N-methyl}-2-(2,4-difluorophenyl)-1-(1H-1,2,4-triazolyl)-propan-3-amino-2-ol]	>12.5 µg/mL
CN(CC(O)(Cn1cncn1)c1ccc(F)cc1F)c1ccc(NC(=O)Nc2ccc(CC(=O)O)cc2)cc1 (centres unmarked) [Compound 87]	>12.5 µg/mL
COC(=O)Cc1ccc(NC(=O)Nc2ccc(N(C)CC(O)(Cn3cncn3)c3ccc(F)cc3F)cc2)cc1 (centres unmarked) [Compound 88, 3-{N-[4-((2-Methoxy-2-oxoethyl)-phenylureido)-phenyl]-N-methyl}-2-(2,4-difluorophenyl)-1-(1H-1,2,4-triazolyl)-propan-3-amino-2-ol]	>12.5 µg/mL
CN(CC(O)(Cn1cncn1)c1ccc(F)cc1F)c1ccc(NC(=O)Nc2ccc(NC(=S)Nc3ccc(Cl)cc3)cc2)cc1 (centres unmarked) [Compound 89, 3-{N-[4-((p-Chlorophenylthioureido)-phenylureido)-phenyl]-N-methyl}-2-(2,4-difluorophenyl)-1-(1H-1,2,4-triazolyl)-propan-3-amino-2-ol]	>12.5 µg/mL
CC(C)NC(=S)NN1CCN(c2ccc(-n3cnn(CC(O)(Cn4cncn4)c4ccc(F)cc4F)c3=O)cc2)CC1 (centres unmarked) [Compound 90, 2-[2-(2,4-Difluorophenyl)-2-hydroxy-3-(1H-1,2,4-triazol-1-yl)propyl]-4-{4-[4-(isopropylthiouredio)-1-piperazinyl]phenyl}-3-(2H,4H)-1,2,4-triazolone]	>12.5 µg/mL
O=C(Nc1ccc(Cl)cc1)NN1CCN(c2ccc(-n3cnn(CC(O)(Cn4cncn4)c4ccc(F)cc4F)c3=O)cc2)CC1 (centres unmarked) [Compound 91, 2-[2-(2,4-Difluorophenyl)-2-hydroxy-3-(1H-1,2,4-triazol-1-yl)propyl]-4-{4-[4-(4-chlorophenyluredio)-1-piperazinyl]phenyl}-3-(2H,4H)-1,2,4-triazolone]	>12.5 µg/mL
O=c1n(-c2ccc(N3CCN(NC(=S)Nc4ccc(Cl)cc4)CC3)cc2)cnn1CC(O)(Cn1cncn1)c1ccc(F)cc1F (centres unmarked) [Compound 92, 2-[2-(2,4-Difluorophenyl)-2-hydroxy-3-(1H-1,2,4-triazol-1-yl)propyl]-4-{4-[4-(4-chlorophenylthiouredio)-1-piperazinyl]phenyl}-3-(2H,4H)-1,2,4-triazolone]	>12.5 µg/mL
